Measurements taken from US20230407243A1, “GENETIC PLATFORM TO INVESTIGATE THE FUNCTIONS OF BACTERIAL DRUG EFFLUX PUMPS” (priority 2022, published 2023).
Where two headings read alike, the source gives them in different places.

How the values were obtained:
Type in all cases: cell-based, Escherichia coli
E. coli EKO-35 = assay: microbe, parasite or virus in culture; conditions: Escherichia coli, EKO35, technical duplicate
Method: (§1) Single colonies were used to inoculate 3 mL of LB followed by incubation at 37° C. for 18 h with aeration at 220 rpm. The bacterial cells were harvested by centrifugation and resuspended in phosphate buffered saline (PBS) ([pH 7.4], 137 mM NaCl (Bioshop), 2.7 mM KCl (Bioshop), 10 mM Na2PO4 (Bioshop) and 1.8 mM K2PO4) to an OD600 nm˜1.0, followed by 1/2000 dilution into MHB II.
(§2) To a 384-well microtiter plate (Corning, untreated polystyrene), 500 nL of compound was dispensed, in duplicate, and serially titrated 2-fold using an Echo 550 acoustic liquid dispenser (Labcyte Inc.). […] As a solvent control, 500 nL of DMSO was applied to wells that contained no compound. Using a multichannel pipette, 50 μL of the prepared bacterial inoculum was applied to each well. To enable background correction post-incubation, the OD600 nm was measured (Biotek Synergy Neo2 microplate reader) prior to incubation. The plates were incubated at 37° C. with aeration at 900 rpm for 18 h. The plates were equilibrated to room temperature and the OD600 nm measured using a BioTek Synergy Neo2 microplate reader. Data was analyzed in both Prism (GraphPad, Version 9.2.0) and Microsoft Excel (Version 16.53). Raw data were input into Microsoft Excel and the pre-incubation OD600 nm measurements were subtracted from the post-incubation OD600 nm measurements. These corrected measurements were input into Prism 9 as a grouped analysis. […] All other MIC values were adjusted accordingly and visualized using the single-color scale grouped heat map function. Identification of compound chemical properties was achieved using DataWarrior (Version 5.5.0). Using PubChem, the SMILES chemical notation for each compound was obtained and compiled in Microsoft Excel. The resulting spreadsheet was input into DataWarrior and properties were calculated from the compound chemical structures.

E. coli ΔtolC = assay: microbe, parasite or virus in culture
Method: as §1, §2

[1] = test system: wild-type E. coli K-12 str. BW25113; assay: microbe, parasite or virus in culture; conditions: Escherichia coli, BW25113, technical duplicate
Method: as §1, §2

EKO-35 araC::acrB = assay: MIC susceptibility profiling, efflux platform; conditions: Escherichia coli; Table 13A; non-porinated; technical duplicate; read-out: Minimum Inhibitory Concentration, EKO-35 araC::acrB
Method: as §1, §2

EKO-35 araC::acrEF = assay: MIC susceptibility profiling, efflux platform; conditions: Escherichia coli; Table 13A; non-porinated; technical duplicate; read-out: Minimum Inhibitory Concentration, EKO-35 araC::acrEF
Method: as §1, §2

[2] = test system: EKO-35 araC::mexCD (MexCD from P. aeruginosa); assay: MIC susceptibility profiling, efflux platform; conditions: Table 13B; non-porinated; technical duplicate; read-out: Minimum Inhibitory Concentration, EKO-35 araC::mexCD
Method: as §1, §2

wild-type (WT) K-12-Pore = assay: microbe, parasite or virus in culture; conditions: Escherichia coli, technical duplicate
Method: (§3) For genomic integration of the pore, the fhuA ΔC/Δ4L gene and the adjacent gentamicin resistance cassette were amplified using a high-fidelity polymerase and the fhuA_40_Up/gImS_3680_Low primers (Table 4). Integration of the pore gene was performed as described above. The pore gene was introduced into the intergenic region between the glmS and pstS genes, with gene expression under the control of a constitutive promoter (Kearse, M. et al., 2012). Genomic integrations were verified using PCR (Primers: pstS_520_Up/glmS_3680_Low, Table 4). Successful integrations were transformed with pCP20 to remove the gentamicin resistance cassette as previously described. Activity of the pore was confirmed through susceptibility testing with the large antibiotic vancomycin prior to phenotypic profiling and further susceptibility testing.
as §1, §2

ΔtolC-Pore = assay: microbe, parasite or virus in culture
Method: as §3, §1, §2

EKO-35-Pore = assay: MIC susceptibility profiling, porinated strain; conditions: Escherichia coli, technical duplicate
Method: as §3, §1, §2

EKO-35 araC::acrB Pore = assay: MIC susceptibility profiling, porinated efflux platform; conditions: Escherichia coli; Table 14A; porinated; technical duplicate; read-out: Minimum inhibitory concentration, EKO-35 araC::acrB Pore
Method: as §3, §1, §2

[3] = test system: EKO-35 araC::acrBD408A Pore; assay: as above; conditions: Escherichia coli; EKO-35 araC::acrBD408A Pore; technical duplicate; read-out: Minimum inhibitory concentration
Method: as §3, §1, §2

EKO-35 araC::acrD Pore = assay: as above; conditions: Escherichia coli; Table 14A; porinated; technical duplicate; read-out: Minimum inhibitory concentration, EKO-35 araC::acrD Pore
Method: as §3, §1, §2

EKO-35 araC::acrEF Pore = assay: as above; conditions: Escherichia coli; Table 14A; porinated; technical duplicate; read-out: Minimum inhibitory concentration, EKO-35 araC::acrEF Pore
Method: as §3, §1, §2

EKO-35 araC::emrKY Pore = assay: as above; conditions: Escherichia coli; EKO-35 araC::emrKY Pore; technical duplicate; read-out: Minimum inhibitory concentration
Method: as §3, §1, §2

EKO-35 araC::macAB Pore = assay: as above; conditions: Escherichia coli; EKO-35 araC::macAB Pore; technical duplicate; read-out: Minimum inhibitory concentration
Method: as §3, §1, §2

EKO-35 araC::mdtBC Pore = assay: as above; conditions: Escherichia coli; EKO-35 araC::mdtBC Pore; technical duplicate; read-out: Minimum inhibitory concentration
Method: as §3, §1, §2

EKO-35 araC::mdtEF Pore = assay: as above; conditions: Escherichia coli; Table 14A; porinated; technical duplicate; read-out: Minimum inhibitory concentration, EKO-35 araC::mdtEF Pore
Method: as §3, §1, §2

O=C(O)c1cn(C2CC2)c2cc(N3CCNCC3)c(F)cc2c1=O [ciprofloxacin]
MIC (E. coli EKO-35; Table 10, without pore, read-out: Minimum inhibitory concentration (MIC), EKO-35): 5 ng/mL | MIC (E. coli EKO-35; Table 13A, non-porinated, read-out: Minimum Inhibitory Concentration, EKO-35): 5 ng/mL | MIC (E. coli ΔtolC; Escherichia coli, 18 h, read-out: Minimum Inhibitory Concentration, ΔtolC): 5 ng/mL | Minimum inhibitory concentration (MIC), ΔtolC (E. coli ΔtolC; Table 10, without pore, technical duplicate): 5 ng/mL | MIC ([1]; Table 10, without pore, read-out: Minimum inhibitory concentration (MIC), K-12): 10 ng/mL | MIC ([1]; Table 13A, non-porinated, read-out: Minimum Inhibitory Concentration, K-12): 10 ng/mL | MIC (EKO-35 araC::acrB): 20 ng/mL | MIC (EKO-35 araC::acrEF): 20 ng/mL | MIC [2]: 10 ng/mL | MIC (wild-type (WT) K-12-Pore; Table 10, with pore, read-out: Minimum inhibitory concentration (MIC), Pore K-12): 5 ng/mL | MIC (wild-type (WT) K-12-Pore; Table 14A, porinated, read-out: Minimum inhibitory concentration, K-12 (WT)-Pore): 5 ng/mL | MIC (ΔtolC-Pore; Escherichia coli, 18 h, read-out: Minimum inhibitory concentration, ΔtolC-Pore): 2 ng/mL | Minimum inhibitory concentration (MIC), Pore ΔtolC (ΔtolC-Pore; Table 10, with pore, technical duplicate): 2 ng/mL | MIC (EKO-35-Pore; Table 10, with pore, read-out: Minimum inhibitory concentration (MIC), Pore EKO-35): 2 ng/mL | MIC (EKO-35-Pore; Table 14A, porinated, read-out: Minimum inhibitory concentration, EKO-35-Pore): 2 ng/mL | MIC (EKO-35 araC::acrB Pore): 9 ng/mL | MIC [3]: 2 ng/mL | MIC (EKO-35 araC::acrD Pore): 2 ng/mL | MIC (EKO-35 araC::acrEF Pore): 10 ng/mL | MIC (EKO-35 araC::emrKY Pore): 2 ng/mL | MIC (EKO-35 araC::macAB Pore): 2 ng/mL | MIC (EKO-35 araC::mdtBC Pore): 2 ng/mL | MIC (EKO-35 araC::mdtEF Pore): 2 ng/mL
